Measurements published in PubChem BioAssay AID330 (DTP/NCI, 2004).
“And” between values parts separate entries of the source, which are not always exact repeats. Equal entries are not always repeated. Inconclusive results and toxic doses are left out.

Tested on: P388 leukemia ip, CD2F1 mice, survival T/C
Test: NCI In Vivo Anticancer Drug Screen. Data for tumor model P388 Leukemia (intraperitoneal) in CD2F1 (CDF1) mice
Conditions: endpoint: median survival time, higher = longer survival
Method in brief: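 Mice carrying the transplanted tumor received test compound or vehicle. Survival was recorded in each group, and the value is the treated-group measurement divided by that of the vehicle-treated control group.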

[1] = dose: 50.0 mg/kg/injection, schedule: Q01DX005 (ip), vehicle: Klucel (hydroxypropylcellulose) (HPC)
[2] = dose: 100.0 mg/kg/injection, schedule: Q01DX005 (ip), vehicle: Klucel (hydroxypropylcellulose) (HPC)
[3] = dose: 200.0 mg/kg/injection, schedule: Q01DX005 (ip), vehicle: Klucel (hydroxypropylcellulose) (HPC)
[4] = dose: 50.0 mg/kg/injection, schedule: Q01DX005 (ip), vehicle: water
[5] = dose: 100.0 mg/kg/injection, schedule: Q01DX005 (ip), vehicle: water
[6] = dose: 200.0 mg/kg/injection, schedule: Q01DX005 (ip), vehicle: water
[7] = dose: 25.0 mg/kg/injection, schedule: Q04DX003 (ip), vehicle: saline with Tween-80
[8] = dose: 50.0 mg/kg/injection, schedule: Q04DX003 (ip), vehicle: saline with Tween-80
[9] = dose: 60.0 mg/kg/injection, schedule: Q01DX005 (ip), vehicle: saline with Tween-80
[10] = dose: 120.0 mg/kg/injection, schedule: Q01DX005 (ip), vehicle: saline with Tween-80
[11] = dose: 50.0 mg/kg/injection, schedule: Q01DX009 (ip), vehicle: saline with Tween-80
[12] = dose: 100.0 mg/kg/injection, schedule: Q01DX009 (ip), vehicle: saline with Tween-80
[13] = dose: 200.0 mg/kg/injection, schedule: Q01DX009 (ip), vehicle: saline with Tween-80
[14] = dose: 60.0 mg/kg/injection, schedule: Q01DX005 (ip), vehicle: Klucel (hydroxypropylcellulose) (HPC)
[15] = dose: 120.0 mg/kg/injection, schedule: Q01DX005 (ip), vehicle: Klucel (hydroxypropylcellulose) (HPC)
[16] = dose: 240.0 mg/kg/injection, schedule: Q01DX005 (ip), vehicle: Klucel (hydroxypropylcellulose) (HPC)
[17] = dose: 50.0 mg/kg/injection, schedule: Q01DX005 (ip), vehicle: saline with Tween-80
[18] = dose: 100.0 mg/kg/injection, schedule: Q01DX005 (ip), vehicle: saline with Tween-80
[19] = dose: 200.0 mg/kg/injection, schedule: Q01DX005 (ip), vehicle: saline with Tween-80
[20] = dose: 12.5 mg/kg/injection, schedule: Q01DX005 (ip), vehicle: saline with Tween-80

## Cc1ccc(S(=O)(=O)N/N=C/c2c(Br)nc3sccn23)cc1
dose: 100.0 mg/kg/injection, schedule: Q01DX001 (ip), vehicle: Klucel (hydroxypropylcellulose) (HPC)
  T/C: 106 % of control
dose: 200.0 mg/kg/injection, schedule: Q01DX001 (ip), vehicle: Klucel (hydroxypropylcellulose) (HPC)
  T/C: 108 % of control
dose: 400.0 mg/kg/injection, schedule: Q01DX001 (ip), vehicle: Klucel (hydroxypropylcellulose) (HPC)
  T/C: 106 % of control

## Cc1ccc(C23c4ccccc4CCN2C(=O)C3N)cc1 (stereo not given)
[1]
  T/C: 99 % of control
[2]
  T/C: 106 % of control
[3]
  T/C: 93 % of control

## N[C@H](CCOc1ccc(/C(=N/O)C(=O)N[C@H]2CN([C@@H](C(=O)O)c3ccc(O)cc3)C2=O)cc1)C(=O)O
[4]
  T/C: 101 % of control
[5]
  T/C: 97 % of control
[6]
  T/C: 105 % of control

## O=C1C(=O)c2nc3ccccc3nc2-c2ccccc21
dose: 25.0 mg/kg/injection, schedule: Q01DX005 (ip), vehicle: water
  T/C: 103 % of control
[4]
  T/C: 97 % of control
[5]
  T/C: 100 % of control
[6]
  T/C: 96 % of control
dose: 400.0 mg/kg/injection, schedule: Q01DX005 (ip), vehicle: water
  T/C: 104 % of control

## Cn1cnc2ncnc(NCc3ccccc3Cl)c21
dose: 6.25 mg/kg/injection, schedule: Q04DX003 (ip), vehicle: saline with Tween-80
  T/C: 93 % of control
dose: 12.5 mg/kg/injection, schedule: Q04DX003 (ip), vehicle: saline with Tween-80
  T/C: 94 % of control
[7]
  T/C: 94 % of control
[8]
  T/C: 91 % of control

## O=C(Nc1c(Cl)cccc1Cl)OC1CCCCCCCCCCC1
dose: 50.0 mg/kg/injection, schedule: Q01DX009 (ip), vehicle: Klucel (hydroxypropylcellulose) (HPC)
  T/C: 100 % of control
dose: 100.0 mg/kg/injection, schedule: Q01DX009 (ip), vehicle: Klucel (hydroxypropylcellulose) (HPC)
  T/C: 92 % of control
dose: 200.0 mg/kg/injection, schedule: Q01DX009 (ip), vehicle: Klucel (hydroxypropylcellulose) (HPC)
  T/C: 86 % of control

## Cn1c(-c2ccc3c(c2)OCO3)cc(=O)c2ccccc21
dose: 30.0 mg/kg/injection, schedule: Q01DX005 (ip), vehicle: saline with Tween-80
  T/C: 97 % of control
[9]
  T/C: 92 % of control
[10]
  T/C: 92 % of control

## CCOC(=O)C1OC1(C(F)(F)F)C(F)(F)F (stereo not given)
[11]
  T/C: 93 % of control
[12]
  T/C: 98 % of control
[13]
  T/C: 104 % of control

## O=c1[nH]c2cc(Cl)ccc2nc1/C=C(\O)c1cccc([N+](=O)[O-])c1
[14]
  T/C: 102 % of control
[15]
  T/C: 97 % of control
[16]
  T/C: 101 % of control

## CC12CCC(=O)OC1(CO)C([Se]c1ccccc1)CC2CC(N)=O (stereo not given)
[17]
  T/C: 93 % of control
[18]
  T/C: 91 % of control
[19]
  T/C: 91 % of control

## CC(C)C1OC(=O)C=C1Sc1ccccc1 (stereo not given)
[17]
  T/C: 100 % of control
[18]
  T/C: 99 % of control
[19]
  T/C: 114 % of control

## CCCCC1CN=C(OCC)N1 (stereo not given)
dose: 6.25 mg/kg/injection, schedule: Q01DX005 (ip), vehicle: saline with Tween-80
  T/C: 104 % of control
[20]
  T/C: 98 % of control

## Oc1ccc(/C=N/NC(=S)Nc2ccccc2)nc1
dose: 265.0 mg/kg/injection, schedule: Q04DX003 (ip), vehicle: Klucel (hydroxypropylcellulose) (HPC)
  T/C: 114 % of control
dose: 400.0 mg/kg/injection, schedule: Q04DX003 (ip), vehicle: Klucel (hydroxypropylcellulose) (HPC)
  T/C: 123 % of control
dose: 600.0 mg/kg/injection, schedule: Q04DX003 (ip), vehicle: Klucel (hydroxypropylcellulose) (HPC)
  T/C: 117 % of control

## COC(=O)C1C[S][Sn]2([NH]1)[NH]C(C(=O)OC)C[S]2 (stereo not given)
[1]
  T/C: 108 % of control
[2]
  T/C: 106 % of control
[3]
  T/C: 101 % of control

## CCCCNC(=O)CCC
[11]
  T/C: 88 % of control
[12]
  T/C: 94 % of control
[13]
  T/C: 95 % of control
dose: 400.0 mg/kg/injection, schedule: Q01DX009 (ip), vehicle: saline with Tween-80
  T/C: 97 % of control

## COC(=O)NC(=S)Nc1nnc(C)s1
[7]
  T/C: 103 % of control
[8]
  T/C: 256 % of control
dose: 100.0 mg/kg/injection, schedule: Q04DX003 (ip), vehicle: saline with Tween-80
  T/C: 105 % of control

## COC(=O)C12OCC34C(CC5C(C)=CC(=O)C(O)C5(C)C3C(O)C1O)OC(=O)C(OC(=O)CC(C)C)C24 (stereo not given)
dose: 0.25 mg/kg/injection, schedule: Q01DX009 (ip), vehicle: saline + alcohol
  T/C: 124 % of control
dose: 0.5 mg/kg/injection, schedule: Q01DX009 (ip), vehicle: saline + alcohol
  T/C: 122 % of control
dose: 2.0 mg/kg/injection, schedule: Q01DX009 (ip), vehicle: saline + alcohol
  T/C: 163 % of control

## O=c1c2c([nH]n1-c1ccccc1)-c1ccccc1CS2
dose: 25.0 mg/kg/injection, schedule: Q01DX009 (ip), vehicle: saline with Tween-80
  T/C: 105 % of control
[11]
  T/C: 104 % of control
[12]
  T/C: 117 % of control

## CCc1ncc(C(O)c2ccc(Cl)cc2)n1Cc1ccccc1 (stereo not given)
[14]
  T/C: 93 % of control
[15]
  T/C: 93 % of control
[16]
  T/C: 90 % of control

## C[N+](C)(Cn1nc(Cl)c2cc([N+](=O)[O-])ccc21)Cn1nc(Cl)c2cc([N+](=O)[O-])ccc21
[8]
  T/C: 93 % of control
dose: 200.0 mg/kg/injection, schedule: Q04DX003 (ip), vehicle: saline with Tween-80
  T/C: 88 % of control

## c1cc2ccc3ccc(C4CO4)c4ccc(c1)c2c34 (stereo not given)
dose: 6.25 mg/kg/injection, schedule: Q01DX009 (ip), vehicle: Klucel (hydroxypropylcellulose) (HPC)
  T/C: 99 % of control
dose: 12.5 mg/kg/injection, schedule: Q01DX009 (ip), vehicle: Klucel (hydroxypropylcellulose) (HPC)
  T/C: 103 % of control
dose: 25.0 mg/kg/injection, schedule: Q01DX009 (ip), vehicle: Klucel (hydroxypropylcellulose) (HPC)
  T/C: 101 % of control

## C/C(=N\NC(=S)N1CCCCC1C)c1nccs1 (stereo not given)
[20]
  T/C: 100 % of control and 108 % of control
dose: 25.0 mg/kg/injection, schedule: Q01DX005 (ip), vehicle: saline with Tween-80
  T/C: 104 % of control and 111 % of control
[17]
  T/C: 112 % of control and 118 % of control

## CCCCCCCCCCC(OC(C)=O)C1CCC(C2CCC(C(O)CCCCCCCCCCCCC3C=C(C)OC3=O)O2)O1 (stereo not given)
dose: 0.25 mg/kg/injection, schedule: Q01DX005 (ip), vehicle: water
  T/C: 111 % of control
dose: 0.5 mg/kg/injection, schedule: Q01DX005 (ip), vehicle: water
  T/C: 124 % of control

## Cn1cnc([N+](=O)[O-])c1C(=O)O
dose: 50.0 mg/kg/injection, schedule: Q01DX009 (ip), vehicle: saline
  T/C: 107 % of control
dose: 100.0 mg/kg/injection, schedule: Q01DX009 (ip), vehicle: saline
  T/C: 89 % of control

## COC(=O)C1CCC(=O)N1Cc1csc(-c2ccccc2)n1 (stereo not given)
[9]
  T/C: 106 % of control
[10]
  T/C: 100 % of control
dose: 240.0 mg/kg/injection, schedule: Q01DX005 (ip), vehicle: saline with Tween-80
  T/C: 106 % of control

## C=CC(=O)OCCOCN(COCCOC(=O)C=C)c1nc(N(COCCOC(=O)C=C)COCCOC(=O)C=C)nc(N(COCCOC(=O)C=C)COCCOC(=O)C=C)n1
[17]
  T/C: 99 % of control
[18]
  T/C: 107 % of control

## C1CN(C[C@H]2CO[C@H](CN3CCOCC3)CO2)CCO1
dose: 50.0 mg/kg/injection, schedule: Q01DX005 (ip), vehicle: saline
  T/C: 91 % of control
dose: 100.0 mg/kg/injection, schedule: Q01DX005 (ip), vehicle: saline
  T/C: 106 % of control
dose: 200.0 mg/kg/injection, schedule: Q01DX005 (ip), vehicle: saline
  T/C: 110 % of control

## CC(=O)C[n+]1ccccc1Sc1ccc(Cl)cc1
[17]
  T/C: 111 % of control
[18]
  T/C: 111 % of control

## O=C1CC=C2C3CC4N(CCC45c4cc(O)c(O)cc4N1C25)C/C3=C\CBr (stereo not given)
dose: 7.5 mg/kg/injection, schedule: Q01DX005 (ip), vehicle: Klucel (hydroxypropylcellulose) (HPC)
  T/C: 106 % of control
dose: 15.0 mg/kg/injection, schedule: Q01DX005 (ip), vehicle: Klucel (hydroxypropylcellulose) (HPC)
  T/C: 108 % of control
dose: 30.0 mg/kg/injection, schedule: Q01DX005 (ip), vehicle: Klucel (hydroxypropylcellulose) (HPC)
  T/C: 123 % of control
